Measurements as given in patent US8314255B2, “Use of phthalimide and/or sulphonamide derivatives in the treatment of diseases which require reducing the TNF- α levels and an exogenous source of nitric oxide, phthalimide derivatives, sulphonamide derivatives, and a method for obtaining a sulphonamide derivative” (priority 2007, dated 2012).
Entries after “also recorded” stand apart in the source; their conditions may differ. Marks after values point to notes of the source that are not given here.

Key:
[1] = test system: mouse ear edema induced by capsaicin; assay: Mouse ear edema assay induced by capsaicin; format: in vivo; details: 300 μmol/Kg i.p., capsaicin 250 μg/ear 1 hour after administration
Experimental: This assay is characterized by an acute inflammatory response of the ear, with development of edema, and it was performed in order to evaluate the anti-inflammatory activity of the synthesized compounds.
In this assay, indomethacin was used as a control at 100 μmol/Kg, and the phthalimide derivatives were firstly evaluated at 300 μmol/Kg via i.p. From table 4, it can be observed that compounds IC and IE show an ear edema inhibition percentage higher than 64%. […] The other compounds, however, show a similar activity when compared to indomethacin (FIG. 01), taking into consideration the standard error.
This assay was performed using Swiss mice from both genders weighing from 18 to 30 grams. The animals were fasted for 8 hours with free access to water. This assay consists in locally administering (right ear) 20 μl of a capsaicin solution (250 μg/ear) diluted in acetone, 1 hour after the i.p. administration (diluted in 0.5% gum arabic). The left ear (control) received the carrier in which capsaicin was diluted (acetone) and the right ear received capsaicin. This assay is characterized by an acute inflammatory response of the ear, with development of edema. The animals were sacrificed and their ears were weighted to obtain the inflammation index. A biopsy (8 mm in diameter) of the ear was carried out. Next, the weights of the inflamed ears were compared against the weights of the contralateral ear (control ear) which were not treated with the phlogistic agent. The edema inhibition percentage was calculated by subtracting the ear treated with the carrier by that treated with capsaicin from each group of animals treated with the test substances, and then it was divided by the difference between the groups of the irritating agents and the control groups.

[2] = test system: leukocyte infiltration, peritonitis induced by thioglycolate; assay: Peritonitis assay induced by 3% thioglycolate; format: in vivo; details: 300 μMol/Kg orally, mouse, 3% thioglycolate i.p., 4 h
Experimental: In a second assay, the number of total leukocytes (10^6/mL) was evaluated in order to evaluate the ability to inhibit their infiltration in the inflammatory process.
The mice were treated with the substances being analyzed or carrier and after 1 h of oral administration, they were simultaneously subjected to the peritonitis assay, by administering intraperitoneally 1 ml of a 3% thioglycolate solution. 4 h after the administration of thioglycolate, the peritoneal cavity was washed with 3 ml of a HANKS solution (Balanced salt solution, free of Ca^2+ and Mg^2+). Next, the peritoneal wash was analyzed and the total counting of white blood cells was made in a Newbauer's chamber under an optical microscope with a 40× objective.

K562 cells = assay: Cell viability in K562 culture (trypan blue); format: cell-based, human
Experimental: (§1) The human leukemia cell line K562 ATCC (American Type Culture Collection), Philadelphia, Pa., USA was used. The cells were cultured in DMEM median (Dulbecco's Modified Eagle Medium, Invitrogen, USA) containing 10% of fetal bovine serum and glutamine. The cells were maintained at 37° C. under a 5% CO2 atmosphere. For the experiments, the cells were incubated at a density of 1×10^5 cells/mL. In order to carry out the culture with hemin (30 uM), it was added 72 hours before the beginning of the experiment with the desired compound.
(§2) The 0-hour time consisted in removing non-treated K562 cells. From this point, the respective compounds were added at the desired concentrations (5, 30, 60 and 100 uM), the cells were then maintained for […] under culture, without a new addition of any compound or substitution of the culture medium. Cell collections were performed at the following times: 0, 24, 48, 72 and 96 hours. The morphology of the cells was analyzed at these points through cytospin slides stained with Leishman and the cell viability was performed by staining with trypan blue in a Neuberger's chamber.

gamma-globin mRNA = assay: Gamma-globin gene expression in K562 cell culture by Real Time PCR; format: cell-based, human; details: for gene expression of gamma-globin: K562 erythroleukemic cells, Real Time PCR, 5-100 μM, 24-96 h
Experimental: as §1, §2
The extraction method with TRIzol reagent (Gibco-BRL, Gaithersburg, Md.) according to the manufacturer's instructions was used in order to obtain the RNA from K562. The sample containing K562 and TRIzol was incubated for 5 minutes at room temperature in order to achieve complete dissociation of the nucleoproteic complexes, 200 μL of chloroform (CHCl3) was added and thoroughly stirred, and incubation was again performed by 5 minutes at room temperature. After centrifugation for 15 minutes at 19,000 g at a temperature of 4° C., the supernatant was obtained and stored in another tube, proceeding immediately to the step of precipitation with 500 μL of cold isopropanol. After homogenization, a new incubation was carried out for 10 minutes at room temperature, followed by centrifugation for 10 minutes at 19,000 g at 4° C. The supernatant was disposed of and 800 μL of 70% cold ethanol was added to the precipitate, with a new centrifugation being carried out for 5 minutes at 14,000 at 4° C. […]
The RNA samples obtained were subjected to the complementary DNA (cDNA) synthesis using the Superscript III RTTM kit (Invitrogen, Life Technologies). After reading in a spectrophotometer (Gene Quant-Pharmacia, USA) and quantification, 3 μg of RNA were treated with the enzyme DNase I (Invitrogen, Life Technologies), for removal of contaminant DNA. […]
After reading in a spectrophotometer (Gene Quant-Pharmacia, USA) and quantification, cDNA aliquots were used as template in quantitative real-time PCR reactions. The technique consists in optically monitoring the fluorescence emitted during the PCR reaction, by means of the binding of a specific probe or dye to the newly synthesized strand. […]

SMILES | Average inhibition % (ear edema) [1] | Cell Number avg (×106), total leukocytes [2] | Inhibition % (leukocyte infiltrate) [2] | cell viability (K562 cells; K562 assays with and without hemin, at the concentrations used) | gene expression of gamma-globin in the presence of hemin versus absence of hemin (gamma-globin mRNA; K562 cells, hemin 30 uM, compared to the control) | gene expression of gamma-globin (gamma-globin mRNA) | cell viability (K562 cells; at 0 h, pattern maintained during the assay) | concentration showing activity on gamma-globin expression (gamma-globin mRNA; K562 cells, 48 hours)
O=C1c2ccccc2C(=O)N1CO[N+](=O)[O-] [Compound IA, (1,3-dioxo-1,3-dihydro-2H-isoindol-2-yl)methyl nitrate] | 53.75% | 4.9 ×106 | 12.5% | – | – | – | – | –
O=C1c2ccccc2C(=O)N1c1ccc(CCO[N+](=O)[O-])cc1 [Compound IE, 2-[4-(1,3-dioxo-1,3-dihydro-2H-isoindol-2-yl)phenyl]ethyl nitrate] | – | 4.13 ×106 | 26.25% | higher than 90% | did not show a significantly higher activity | increasing the gene expression of gamma-globin | – | –
Nc1ccc(S(=O)(=O)NO)cc1 [Compound IIA, 4-amino-N-hydroxybenzenesulphonamide] | 49.24% | 4.0 ×106 | 28.57% | – | – | higher activity than the control; also recorded: higher than the increase provided by compound IE | 97% | 5 µM
O=C1c2ccccc2C(=O)N1CCO[N+](=O)[O-] [IB, 2-(1,3-dioxo-1,3-dihydro-2H-isoindol-2-yl)ethyl nitrate] | 46.55% | 2.73 ×106 | 51.25* % | – | – | – | – | –
O=C1c2ccccc2C(=O)N1c1ccc(CO[N+](=O)[O-])cc1 [ID, 4-(1,3-dioxo-1,3-dihydro-2H-isoindol-2-yl)benzyl nitrate] | 37.18% | 3.8 ×106 | 32.14% | – | – | – | – | –
